{"source": "paper PMC4752462", "about": "(PLoS ONE, 2016)", "key": {"CYP3A4": {"tested_on": "CYP3A4", "details": "cited from earlier work"}, "human recombinant CYP3A4": {"target": "T1, human recombinant CYP3A4 (Homo sapiens, UniProt P08684)", "T1 construct": "purchased Life Technologies P2858; host or cells: baculosomes (baculovirus-infected insect cell microsomes)", "T1 sequence (P08684 whole entry)": "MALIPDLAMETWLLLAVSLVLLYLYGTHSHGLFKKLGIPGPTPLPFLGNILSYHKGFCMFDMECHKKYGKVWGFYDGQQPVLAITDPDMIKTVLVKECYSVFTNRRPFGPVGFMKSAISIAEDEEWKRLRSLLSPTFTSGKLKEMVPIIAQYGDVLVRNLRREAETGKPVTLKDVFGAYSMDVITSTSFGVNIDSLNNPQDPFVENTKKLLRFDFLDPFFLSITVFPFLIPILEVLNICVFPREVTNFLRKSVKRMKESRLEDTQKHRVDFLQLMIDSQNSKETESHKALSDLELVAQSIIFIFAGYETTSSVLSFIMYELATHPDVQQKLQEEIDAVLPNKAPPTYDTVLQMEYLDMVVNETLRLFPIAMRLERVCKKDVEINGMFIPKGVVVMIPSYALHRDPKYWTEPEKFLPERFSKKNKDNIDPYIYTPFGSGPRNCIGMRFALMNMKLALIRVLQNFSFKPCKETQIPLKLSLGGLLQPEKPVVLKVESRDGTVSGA", "test": "CYP3A4 inhibition, Vivid CYP450 blue screening kit with baculosomes", "assay_type": "biochemical", "procedure": "CYP3A4 inhibition assay was carried out by using Vivid® CYP450 Screening Kit from Life Technologies as recommended by the manufacturer (# P2858, Carlsbad, CA). This assay allows rapid measurement of interactions between drugs of interest and CYP enzymes based on their capability to inhibit the production of a fluorescent signal in reactions using CYP BACULOSOMES® Plus Reagents and specific Vivid® Substrates. Briefly, the assay was conducted in a 96-well assay plate. […] The final concentrations of 2.5, 5, 7.5, 10, 25, 50, 75, and 100 μM were achieved by diluting the stocks in 1X Vivid® CYP reaction buffer. […] For ethanol only experiment, 2.5, 5, […], 20, 30, and 50 mM final concentrations were used. The final concentration of acetonitrile in each reaction was 0.01% in 100 μl final reaction volume. The fluorescence was immediately measured using a microplate reader (Cytation™ 5 Cell Imaging Multi-Mode Reader, BioTek, VT) at the 415/460 nm excitation and emission wavelengths.\nThe concentrations of all the drugs were quantified using Ab Sciex Analyst® software. Microsomal kinetic data were analyzed using Michaelis-Menten and exponential decay equations. CYP3A4 inhibition data were evaluated by fitting the values to dose-response inhibition and calculated IC50 values were reported. All graphs were plotted and two-tailed t-tests were performed wherever appropriate using GraphPad Prism 5.01 (GraphPad, San Diego, CA). Significant differences between more than two groups analyzed with one-way ANOVA followed by Dunnett’s multiple comparison tests using IBM SPSS […] version 20. A p value <0.05 was considered significant compared to respective controls. The original data and/or statistical analyses for Michaelis-Menten Kinetics, drug metabolism and half-life determination, inhibition studies, and ligand docking are provided in the supporting information (S1 file)."}}}
{"smiles": "Cc1c(O)cccc1C(=O)N[C@@H](CSc1ccccc1)[C@H](O)CN1C[C@H]2CCCC[C@H]2C[C@H]1C(=O)NC(C)(C)C", "note": "[nelfinavir]", "values": [{"measurement": "effect of ethanol exposure on the IC50 value", "setting": "CYP3A4", "result": "significantly decreased"}]}
{"smiles": "CC(C)CN(C[C@@H](O)[C@H](Cc1ccccc1)NC(=O)O[C@H]1CCOC1)S(=O)(=O)c1ccc(N)cc1", "note": "[amprenavir]", "values": [{"measurement": "effect of ethanol exposure on the IC50 value", "setting": "CYP3A4", "result": "significantly decreased"}]}
{"smiles": "CCO", "note": "[EtOH, ethanol]", "values": [{"measurement": "CYP3A4 activity (Fig 5 inset)", "setting": "human recombinant CYP3A4; EtOH 2.5 mM alone", "result": 102.61}, {"measurement": "CYP3A4 activity (Fig 5 inset)", "setting": "human recombinant CYP3A4; EtOH 5 mM alone", "result": 98.7735}, {"measurement": "CYP3A4 activity (Fig 5 inset)", "setting": "human recombinant CYP3A4; EtOH 10 mM alone", "result": 93.5305}, {"measurement": "CYP3A4 activity (Fig 5 inset)", "setting": "human recombinant CYP3A4; EtOH 20 mM alone", "result": 91.7899}, {"measurement": "CYP3A4 activity (Fig 5 inset)", "setting": "human recombinant CYP3A4; EtOH 30 mM alone", "result": 86.4404}, {"measurement": "CYP3A4 activity (Fig 5 inset)", "setting": "human recombinant CYP3A4; EtOH 50 mM alone", "result": 79.5554}, {"measurement": "inhibition of CYP3A4", "setting": "human recombinant CYP3A4; ethanol only at 20 mM", "result": "~ 10%"}]}
